From patent US5939424A, “Compounds for treating disorders of lipid metabolism and their preparation” (Hoechst Aktiengesellschaft, priority 1996, dated 1999)
Structures can show the parent of a compound that is named as a salt.

tested on: LDL receptor mRNA; assay: LDL receptor mRNA levels in rat livers (Northern blot, β-actin as internal standard); assay type: in vivo; settings: rat liver, 30 mg/kg, 6 hours after administration; untreated control = 100%
Description: To test the ability of the inventive compounds to lower plasma lipid levels, the stimulation of LDL receptor mRNA production was chosen as a surrogate. Thus, in rat livers, within a few hours the LDL receptor mRNA levels are increased by the compounds of the formula I (Table I). The stimulation is in the range from 170 to 350% of the controls (control=100%).
The preparation of the mRNA was carried out according to the method of Chomczynski, P. and Sacchi, N., Anal. Biochem. 162, 156-159 (1987). In organs (such as, for example, liver), the deep-frozen tissue was homogenized on dry ice beforehand in a mortar and the mRNA was further enriched by means of Oligo dT according to standard methods (cf. Sambrook, J., Fritsch, E. F. and Maniatis, T., Molecular Cloning, second Edition, Cold Spring Harbor (1989); in this collection of methods, there are also descriptions of all further relevant molecular biology standard methods used here). Five to […] of the dissolved mRNA thus obtained were denatured according to standard methods and separated on 1% horizontal agarose gels. The mRNA was transferred to Hybond N membranes (Amersham) by means of capillary blot. The specific hybridization probe used was a partial LDL receptor cDNA clone and the internal standard a plasmid which contained a β-actin gene. Both plasmids were labeled by means of a random primer kit from Amersham up to a specific activity of 5×10^9 cpm/mg. Prehybridization, hybridization and washing of the filters were carried out by standard methods. The filters were then exposed at -70° C. on Cronex 4 films (Dupont) overnight up to 14 days in the presence of an intensifying screen and the hybridization signals were quantified using a commercial laser densitometer by means of the film-blackening intensity. The quotient of the intensity of the LDL receptor band and of the actin band was then determined as an internal standard to correct yield variations.
Liver tissue was removed and shock-frozen in liquid nitrogen. The mRNA was then isolated as described, and the relative LDL receptor mRNA levels were determined by means of the Northern blot technique. The mRNA levels of untreated control animals were set at 100%, and the stimulation of the LDL receptor mRNA in percent of the control was calculated.

| Structure (SMILES) | LDL receptor mRNA (stimulation in percent of the control) |
| --- | --- |
| CC1(C)CN(c2ncc(C(=O)Nc3cccc(OC(F)(F)F)c3)c(N)n2)C(=O)N1 [Example 2, 4-Amino-2-(4,4-dimethylimidazolidin-2-on-1-yl)-5-(3-trifluoromethoxyphenylpyrimidine)carboxamide] | 250% |
| CCN(C(=O)c1cnc(N2CC(C)(C)NC2=O)nc1N)c1cccc(OC(F)(F)F)c1 [Example 3, 4-Amino-2-(4,4-dimethyl-2-oxo-1-imidazolidin-2-on-1-yl)-5-[N-ethyl-N-(3-trifluoromethoxy)phenyl]pyrimidinecarboxamide hydrochloride] | 235% |
| CC1(C)CN(c2ncc(C(=O)N(CC(F)(F)F)c3cccc(OC(F)(F)F)c3)c(N)n2)C(=O)N1 [Example 4, 4-Amino-2-(4,4-dimethylimidazolidin-2-on-1-yl)-5-[N-(2,2,2-trifluoroethyl)-N-(3-trifluoromethoxyphenyl)]-pyrimidinecarboxamide] | 230% |
| CC1(C)CN(c2ncc(C(=O)Nc3ccc4c(c3)OC(F)(F)O4)c(N)n2)C(=O)N1 [Example 14, 4-Amino-2-(4,4-dimethylimidazolidin-2-on-1-yl)-5-[N-(2,2-difluorobenzo-1,3-dioxol-5-yl)]pyrimidinecarboxamide-hydrochloride] | 250% |
| CC1(C)CN(c2ncc(C(=O)Nc3ccc4c(c3)OC(F)(F)C(F)(F)O4)c(N)n2)C(=O)N1 [Example 15, 4-Amino-2-(4,4-dimethylimidazolidin-2-on-1-yi)-5-[N-(2,2,3,3-tetrafluorobenzo-1,4-dioxan-6-yl)]-pyrimidinecarboxamide hydrochloride] | 242% |
| CC1(C)CN(c2ncc(C(=O)Nc3cccc(SC(F)(F)F)c3)c(N)n2)C(=O)N1 [Example 22, 4-Amino-2-(4,4-dimethylimidazolidin-2-on-1-yl)-5-[N-(3-trifluorothiomethyl-phenyl)]pyrimidinecarboxamide-hydrochloride] | 235% |
